Results taken from patent publication US12357650B2, “Methods and compositions for cancer therapies that include delivery of halogenated thymidines and thymidine phosphorlylase inhibitors in combination with radiation” (Shuttle Pharmaceuticals, Inc., priority 2017, dated 2025).
Where “and” joins values, the source holds several entries; their conditions need not be identical. Identical values can stand only once. Like-named read-outs stand apart in the source and are kept apart here.

Columns and labels:
[1] = Pharmacokinetic profile of IUdR (100 mg/kg) with and without Tipiracil in rats following single oral administration; type: in vivo, male Sprague-Dawley rats; conditions: single oral dose, Example 1, sub-heading prints PO-20 (Compound A) alone or + 7.9 (Compound B) mg/kg, individual animals
Experimental: (§1) The purpose of this study was to determine the pharmacokinetics parameters of IUdR in male Sprague-Dawley rats following single oral (PO) administration the IUdR (i.e., Compound A) and Tipiracil (i.e., Compound B).
A control formulation was prepared where Compound A was dissolved in 5% DMSO+95% PBS to yield a final concentration of 10 mg/mL for oral administration. The prepared formulation was white suspension (pH˜7).
A second formulation was prepared where Compound A and Compound B were dissolved in 5% DMSO+95% PBS to yield a final concentration of 10 mg/mL (Compound A) and 0.79 mg/mL (Compound B) for oral administration. The prepared formulation was white suspension (pH˜7).
(§2) Animal Acquisition and Assignment to Study. A total of 8 male experimental Sprague-Dawley Rats were transferred from stock colony, and 6 animals were placed on study.
(§3) Dose Administration. The test article was administered via a single oral administration.
(§4) Sample Collection and Bioanalysis. Blood samples (approximately 200 μL/sample) were collected via jugular vein at Pre-dose and Post-dose (5 min, 15 min, 30 min, 1 h, 2 h, 4 h, 6 h, 8 h and 24 h). Blood samples were placed into tubes containing K2EDTA and centrifuged conditions at 8000 rpm for 6 minutes at 2-8° C. to separate plasma from the samples. Following centrifugation, the resulting plasma were transferred to clean tubes and stored frozen at −80° C. pending bioanalysis.
Pharmacokinetic Analysis. The PK analysis and interpretation of the results were conducted by Medicilon Preclinical Research (Shanghai) LLC. A non-compartmental module of WinNonlin® Professional was used to calculate parameters. Any BLQs (LLOQ=10.0 ng/mL for Compound A) were omitted when calculate the PK parameters.
(§5) Clinical Observations. No abnormal observations were noted.

[2] = Pharmacokinetic profile of IUdR (20 mg/kg) with and without Tipiracil in rats following single oral administration; type: in vivo, male Sprague-Dawley rats; conditions: for Plasma Concentration of Compound A / concentration at 0.083 hr / concentration at 0.25 hr / concentration at 0.5 hr / concentration at 1 hr: PO-20 mg/kg Compound A alone or + 7.9 mg/kg Compound B; for concentration at 0.083 hr / concentration at 0.25 hr / concentration at 0.5 hr / concentration at 1 hr: oral; for AUC(0-t) / Cmax: po
Experimental: as §1
A control formulation was prepared where Compound A was dissolved in 5% DMSO+95% PBS to yield a final concentration of 2 mg/mL for oral administration. The prepared formulation was colorless clear solution (pH˜8).
A second formulation was prepared where Compound A and Compound B were dissolved in 5% DMSO+95% PBS to yield a final concentration of 2 mg/mL (Compound A) and 0.79 mg/mL (Compound B) for oral administration. The prepared formulation was colorless clear solution (pH˜7).
as §2, §3, §4
Pharmacokinetic Analysis. The PK analysis and interpretation of the results were conducted by Medicilon Preclinical Research (Shanghai) LLC. A non-compartmental module of WinNonlin® Professional was used to calculate parameters. Any BLQs (LLOQ=5.0 ng/mL for Compound A) were omitted when calculate the PK parameters.
as §5

cells = conditions: as compared to cells without the defective DNA; cited from earlier work
[3] = single oral dose, PO-20 (Compound A) alone or + 7.9 (Compound B) mg/kg, individual animals

## O=c1[nH]c(=O)n([C@H]2C[C@H](O)[C@@H](CO)O2)cc1I [Compound A, 5-iodo-2′-deoxyuridine]
[1]; male, Sprague-Dawley, rat, plasma, po, 100 mg/kg
  AUC(0-t): 3320 ng·h/mL
[1]; male, Sprague-Dawley, rat, plasma, po, 100 mg/kg, read-out: Cmax of Compound A
  Cmax: 944 ng/mL
[1]
  AUC(0-t) of Compound A: 2214.79 ng·h/mL and 2609.22 ng·h/mL
  Cmax of Compound A: 773.62 ng/mL and 755.39 ng/mL
  Tmax of Compound A: 2.00 h
[2]; 0.083 hr, individual animals, LLOQ 5 ng/mL
  Plasma Concentration of Compound A: 25.16 ng/mL and 16.04 ng/mL
[2]; 0.25 hr, individual animals, LLOQ 5 ng/mL
  Plasma Concentration of Compound A: 54.67 ng/mL and 56.48 ng/mL
[2]; 0.5 hr, individual animals, LLOQ 5 ng/mL
  Plasma Concentration of Compound A: 63.23 ng/mL and 57.34 ng/mL
[2]; 1 hr, individual animals, LLOQ 5 ng/mL
  Plasma Concentration of Compound A: 19.19 ng/mL and 21.93 ng/mL
[2]; 2 hr, individual animals, LLOQ 5 ng/mL
  Plasma Concentration of Compound A: BLQ
[2]; 4 hr, individual animals, LLOQ 5 ng/mL
  Plasma Concentration of Compound A: BLQ
[2]; 6 hr, individual animals, LLOQ 5 ng/mL
  Plasma Concentration of Compound A: BLQ
[2]; 8 hr, individual animals, LLOQ 5 ng/mL
  Plasma Concentration of Compound A: BLQ
[2]; 24 hr, individual animals, LLOQ 5 ng/mL
  Plasma Concentration of Compound A: BLQ
[2]; male, Sprague-Dawley, rat, plasma, 20 mg/kg, single oral dose, PO-20 (Compound A) alone or + 7.9 (Compound B) mg/kg, individual animals
  Tmax: 30 min
[2]; male, Sprague-Dawley, rat, plasma, 20 mg/kg, 0.083 hr, group mean, read-out: Plasma Concentration of Compound A, Mean
  concentration at 0.083 hr: 21.9 ng/mL
[2]; male, Sprague-Dawley, rat, plasma, 20 mg/kg, 0.083 hr, individual animals, LLOQ 5 ng/mL, read-out: Plasma Concentration of Compound A
  concentration at 0.083 hr: 24.5 ng/mL
[2]; male, Sprague-Dawley, rat, plasma, 20 mg/kg, 0.25 hr, group mean, read-out: Plasma Concentration of Compound A, Mean
  concentration at 0.25 hr: 49.2 ng/mL
[2]; male, Sprague-Dawley, rat, plasma, 20 mg/kg, 0.25 hr, individual animals, LLOQ 5 ng/mL, read-out: Plasma Concentration of Compound A
  concentration at 0.25 hr: 36.5 ng/mL
[2]; male, Sprague-Dawley, rat, plasma, 20 mg/kg, 0.5 hr, group mean, read-out: Plasma Concentration of Compound A, Mean
  concentration at 0.5 hr: 57.7 ng/mL
[2]; male, Sprague-Dawley, rat, plasma, 20 mg/kg, 0.5 hr, individual animals, LLOQ 5 ng/mL, read-out: Plasma Concentration of Compound A
  concentration at 0.5 hr: 52.5 ng/mL
[2]; male, Sprague-Dawley, rat, plasma, 20 mg/kg, 1 hr, group mean, read-out: Plasma Concentration of Compound A, Mean
  concentration at 1 hr: 22.8 ng/mL
[2]; male, Sprague-Dawley, rat, plasma, 20 mg/kg, 1 hr, individual animals, LLOQ 5 ng/mL, read-out: Plasma Concentration of Compound A
  concentration at 1 hr: 27.2 ng/mL
[2]; male, Sprague-Dawley, rat, plasma, 20 mg/kg, oral administration, Example 2 (20 mg/kg IUdR, ± 7.9 mg/kg Tipiracil), comparison table, mean, read-out: AUC(0-t) of Compound A
  AUC(0-t): 40.3 ng·h/mL
[2]; male, Sprague-Dawley, rat, plasma, 20 mg/kg, oral administration, Example 2 (20 mg/kg IUdR, ± 7.9 mg/kg Tipiracil), comparison table, mean, read-out: Cmax of Compound A
  Cmax: 57.7 ng/mL
[2]; male, Sprague-Dawley, rat, plasma, 20 mg/kg, single oral dose, PO-20 (Compound A) alone or + 7.9 (Compound B) mg/kg, group mean, read-out: AUC(0-t) of Compound A, Mean
  AUC(0-t): 40.3 ng·h/mL
[2]; male, Sprague-Dawley, rat, plasma, 20 mg/kg, single oral dose, PO-20 (Compound A) alone or + 7.9 (Compound B) mg/kg, group mean, read-out: Cmax of Compound A, Mean
  Cmax: 57.7 ng/mL
[2]; male, Sprague-Dawley, rat, plasma, 20 mg/kg, single oral dose, PO-20 (Compound A) alone or + 7.9 (Compound B) mg/kg, individual animals, read-out: AUC(0-t) of Compound A
  AUC(0-t): 40.8 ng·h/mL
[2]; male, Sprague-Dawley, rat, plasma, 20 mg/kg, single oral dose, PO-20 (Compound A) alone or + 7.9 (Compound B) mg/kg, individual animals, read-out: Cmax of Compound A
  Cmax: 57.3 ng/mL
[2]; [3]
  AUC(0-t) of Compound A: 37.15 ng·h/mL and 43.05 ng·h/mL
  Cmax of Compound A: 52.45 ng/mL and 63.23 ng/mL
cells
  increase in susceptibility of cells to the lethal effects of RT: two-three fold
